The numbers were not newly measured in patent US20060194234A1, “Methods for identifying small molecules that bind specific RNA structural motifs” (PTC Therapeutics, Inc., priority 2001, published 2006), which cites them from elsewhere.

Data set [1] concerns IIB (or RRE) region of HIV RNA. Particulars: appears to result from competitive binding directly to the RRE RNA structural motif.
Data set [2] concerns 60-mer from ribosomal RNA. The following applies: literature statement in background.

In the case of `NC[C@@H]1O[C@H](O[C@H]2[C@@H](O)[C@H](O[C@@H]3[C@@H](O)[C@H](N)C[C@H](N)[C@H]3O[C@H]3O[C@H](CO)[C@@H](O)C[C@H]3N)O[C@@H]2CO)[C@H](N)[C@@H](O)[C@@H]1O[C@H]1O[C@H](CO)[C@@H](O)[C@H](O)[C@@H]1O` [lividomycin A], in data set [1], the “block of the binding of Rev to its viral recognition element in the IIB (or RRE) region of HIV RNA” value (from here on “block of the binding of Rev”) is reported as “can block the binding”. `NC[C@@H]1O[C@H](O[C@H]2[C@@H](O)[C@H](O[C@@H]3[C@@H](O)[C@H](N)C[C@H](N)[C@H]3O[C@H]3O[C@H](CN)[C@@H](O)[C@H](O)[C@H]3N)O[C@@H]2CO)[C@H](N)[C@@H](O)[C@@H]1O` [neomycin B]: the “block of the binding of Rev” value in data set [1] is given as “can block the binding”.

Consider `NC[C@H]1O[C@H](O[C@H]2[C@H](O)[C@@H](O[C@H]3O[C@H](CO)[C@@H](O)[C@H](N)[C@H]3O)[C@H](N)C[C@@H]2N)[C@H](N)C[C@@H]1O` [tobramycin], for which the “block of the binding of Rev” value in data set [1] is reported as “can block the binding”. As for thiostreptone, the “binding to a 60-mer from ribosomal RNA” value in data set [2] is reported as “binds tightly”.
